What all share (format): cell-based
Test [1] concerns HT29 cells. Put plainly: DCFDA cellular ROS detection assay. The following applies: complexes at IC50, TBHP 20 µM. The protocol: (§1) DCFDA/H2DCFDA-cellular ROS Assay Kit (Abcam, Cambridge, MA, USA) was used to investigate the production of ROS in treated cells, as previously described. MDA−MB−231 or HT29 cells were seeded at a total concentration of 2500 cells/well in 96-well plates and incubated overnight. DMEM was then removed, and cells washed with 1× kit buffer, and stained with 25 µM 2′,7′-dichlorofluorescein diacetate (DCFH-DA) for 45 min. […] After that, the plates were scanned using the Glo-Max®-Multimode microplate reader (Promega Corporation, Alexandra, VIC, Australia) at an excitation/emission of 485/535 nm to detect fluorescence (relative fluorescence units, or RFU) at various time points. A positive control was generated using 20 µM tert-butyl hydroperoxide (TBHP), and the same procedure was applied with DCFDA. Three independent experiments in triplicates were implemented.

The test system of test [2] is MDA−MB−231 cells. Put plainly: DCFDA cellular ROS detection assay. Conditions: complexes at IC50, TBHP 20 µM. On the procedure: as §1
Test [3] deals with HT29 cells. Put plainly: TMRE mitochondrial membrane potential assay. Conditions: complexes at IC50, FCCP 20 µM. On the procedure: (§2) Cells were then treated with an IC50 drug concentration for each complex. At 24, 48 or 72 h, DMEM was removed, and cells were washed with PBS. Then, cells were incubated with 1 µM tetramethylrhodamine, ethyl ester (TMRE) stain for 30 min. TMRE was then removed, and cells were washed twice with PBS (0.2% BSA), after which phenol red-free media was added. […] The cells were then stained with TMRE, as described above, and the resulting solution was scanned for fluorescence. Three independent experiments in triplicates were implemented.

Test [4] deals with MDA−MB−231 cells. Description: TMRE mitochondrial membrane potential assay. Conditions: complexes at IC50, FCCP 20 µM. On the procedure: as §2

Each structure is given as a SMILES string.

For `CC(C)(C)OO` [TBHP, tert-butyl hydroperoxide, reference compound], the ROS production in test [1] (HT29, 24 h) is recorded as 544.67 RFU; in test [1] (HT29, 48 h) it was 362.55 RFU; in test [1] (HT29, 72 h) it was 371.44 RFU; in test [2] (MDA−MB−231, 24 h) it was 509.88 RFU; in test [2] (MDA−MB−231, 48 h) it was 400.11 RFU; in test [2] (MDA−MB−231, 72 h) it was 388.41 RFU.
For the molecule `N#CC(C#N)=NNc1ccc(OC(F)(F)F)cc1` [FCCP, carbonyl cyanide 4-(trifluoromethoxy) phenylhydrazone, reference compound], the “MtMp (mitochondrial membrane potential)” value in test [3] (HT29, 24 h) amounted to 184.32 RFU; in test [3] (HT29, 48 h), 143.31 RFU; in test [3] (HT29, 72 h), 83.58 RFU; in test [4] (MDA−MB−231, 24 h), 215.89 RFU; in test [4] (MDA−MB−231, 48 h), 123.38 RFU; in test [4] (MDA−MB−231, 72 h), 99.10 RFU.
